# Source: PMC10366102, “Dose escalation and expansion cohorts in patients with advanced breast cancer in a Phase I study of the CDK7-inhibitor samuraciclib” (Nature Communications, 2023)
# Assays:
# advanced TNBC = experiment: Module 1B-1 anti-tumor activity (RECIST V1.1); type: in vivo, human
# Experimental: A single arm expansion was conducted to refine the safety, tolerability, PK, and pharmacodynamic profiles of samuraciclib monotherapy (360 mg OD) in male or female patients with advanced TNBC. Patients with histological, radiological or cytological confirmation of metastasis or locally advanced TNBC not considered to be appropriate for further standard treatment, who had received at least 1 line of systemic anti-cancer therapy, and measurable disease according to the RECIST V1.1, were eligible.
# Patients underwent regular safety monitoring and 8-week scans reported using RECIST V1.1. […]
# treatment RECIST assessment. […]
# number of patients in the particular analysis population. Duration of response (DoR) was defined as the time from documentation of tumor response to disease progression. Progression-free survival (PFS) was […]
# cause, whichever occurred first. Efficacy results were summarized descriptively and Kaplan -Meier plots provided where appropriate. […]
# [1] = tested on: Han Wistar (Crl:WI [Han]) rats; details: cited from earlier work
# [2] = Module 4 food effect study; type: in vivo, human
# Experimental: Carrick Therapeutics CT7001_001, Volume 3, Module 1, Part B-1 (TNBC) […]
# in a test using the whole-cell patch-clamp technique (human embryonic kidney [HEK] cells transfected with hERG), and the CT7001 IC50 in the K+ channel was determined to be greater […]
# Cardiovascular toxicity potential was also studied in vivo in dogs. Oral administration of 5, 15, and 20 mg/kg CT7001 had no effect on haemodynamic parameters, ECG parameters, or body temperature in the dog, compared with control article (vehicle) administration.
# Effects of CT7001 on the central nervous system (CNS [Irwin]) and respiratory systems were […]
# CT7001 has low mutagenic potential. At concentrations up to the lower limit of toxicity, it induced no mutations in a five strains Ames test.
# 2.3.2 Current Clinical Data of CT7001
# A first-in-human multi-module Phase I/II clinical study commenced in November 2017 […]
# only clinical study conducted to date.
# The single- and multiple-ascending dose Phase 1a part of the study (Module 1, Part A) is completed. 33 dosed patients have completed this part of Module 1 (120, 240, 480 mg and a step-down dose level of 360 mg, all taken once daily (OD), and 180 mg given twice a day (BID), all in a fasted state). […]
# Module 4 evaluated the effect of food on CT7001 bioavailability in cancer patients. […]
structure (smiles),measurement,setting,value
"CC(C)c1cnn2c(NCc3ccccc3)cc(NC[C@H]3CCNC[C@@H]3O)nc12 [samuraciclib, Samuraciclib]",Duration of response of the one PR,"advanced TNBC; Module 1B-1, 360 mg OD",337 days
same,Clinical benefit rate at 24 weeks,"advanced TNBC; Module 1B-1, 4/20",20.0%
same,Best overall response progressive disease,"advanced TNBC; Module 1B-1, 20 evaluable",40.0%
same,Best overall response stable disease,"advanced TNBC; Module 1B-1, 20 evaluable",55.0%
same,Objective response rate,"advanced TNBC; Module 1B-1, 20 evaluable",5.0%
same,"Progression-free survival, median (95% confidence interval)",advanced TNBC; Module 1B-1 ITT N = 23,"2.4 (1.9, 3.8) months"
same,Best objective response: Complete response,advanced TNBC; Module 1B-1 N = 20,0 n (%)
same,Best objective response: Partial response,advanced TNBC; Module 1B-1 N = 20,1 (5.0) n (%)
same,Best objective response: Progressive disease,advanced TNBC; Module 1B-1 N = 20,8 (40.0) n (%)
same,Best objective response: Stable disease,advanced TNBC; Module 1B-1 N = 20,11 (55.0) n (%)
same,Objective response rate,advanced TNBC; Module 1B-1 N = 20,1 (5.0) n (%)
same,Findings in 4-week oral gavage study,"[1]; 120 mg/kg/day, Han Wistar rats, ref IB",deaths and severe clinical
same,HNSTD (middle dose tested),"[1]; rat, in vivo",60 mg/kg
same,Food effect on exposure or % variability,[2],no food effect was seen
